From patent US9408842B2, “Substituted pyrano and furanoquinolines, their preparation and use as medicaments” (LABORATORIOS DEL DR. ESTEVE S.A., priority 2012, dated 2016) come the findings set out here.

Where a name gives a salt, the structure may show the parent alone.

For the assay, the target named is T1, σ1-receptor (Cavia porcellus, UniProt Q60492).
T1 construct: Guinea pig brains were homogenized in 10 vols; (w/v) of Tris-HCl 50 mM 0.32 M sucrose, pH 7.4; from tissue; host or cells: guinea pig brain membranes
T1 sequence (Q60492 whole entry): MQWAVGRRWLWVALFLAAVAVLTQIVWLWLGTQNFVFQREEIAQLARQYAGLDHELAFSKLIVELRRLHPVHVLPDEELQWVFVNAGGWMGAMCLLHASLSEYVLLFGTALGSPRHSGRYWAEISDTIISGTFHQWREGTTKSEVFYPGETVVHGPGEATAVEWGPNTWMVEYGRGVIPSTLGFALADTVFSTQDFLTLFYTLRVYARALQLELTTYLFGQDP
The assay can be described thus: binding assay for the σ1-receptor, [3H]-(+)-pentazocine, brain membranes. The conditions noted are these: guinea pig brain membranes; radioligand [3H]-(+)-pentazocine 5.0 nM; 150 min at 37° C.; nonspecific binding with 1 μM haloperidol. As to the method: Guinea pig brains were homogenized in 10 vols. (w/v) of Tris-HCl 50 mM 0.32 M sucrose, pH 7.4, with a Kinematica Polytron PT 3000 at 15000 r.p.m. for 30 s. The homogenate was centrifuged at 1000 g for 10 min at 4° C. and the supernatants collected and centrifuged again at 48000 g for 15 min at 4° C. The pellet was resuspended in 10 volumes of Tris-HCl buffer (50 mM, pH 7.4), incubated at 37° C. for 30 min, and centrifuged at 48000 g for 20 min at 4° C. Following this, the pellet was re-suspended in fresh Tris-HCl buffer (50 mM, pH 7.4) and stored on ice until use.
The radioligand used was [^3H]-(+)-pentazocine at 5.0 nM and the final volume was 200 μl. The incubation was initiated with the addition of 100 μl of membrane at a final tissue concentration of approximately 5 mg tissue net weight/mL and the incubation time was 150 m. at 37° C. After incubation, the membranes were collected onto pretreated glass fiber filterplate (MultiScreen-FC, Millipore), with polyethylenimine 0.1%. The filters were washed two times with 200 μl of washing buffer (50 mM Tris Cl, pH=7.4) and then 25 μl of Ecoscint H liquid scintillation cocktail were added. […] Nonspecific binding was determined with 1 μM haloperidol.

In the case of `CCCCCc1ccc2c(c1)[C@H]1OCC[C@H]1[C@@H](C1CCCCC1)N2` (racemic) [Example 84, (3aSR*,4RS*,9bSR*)-4-cyclohexyl-8-pentyl-2,3,3a,4,5,9b-hexahydrofuro[3,2-c]quinoline hydrochloride], the Ki (in general, a measure of affinity in units of concentration, obtained from inhibition or displacement) was determined as 244 nM.
With `CCN1CCC([C@H]2Nc3ccc(OCCC(C)C)cc3[C@H]3OCCC[C@H]32)CC1` (racemic) [Example 110, (4aSR*,5RS*,10bSR*)-5-(1-ethylpiperidin-4-yl)-9-(isopentyloxy)-3,4,4a,5,6,10b-hexahydro-2H-pyrano[3,2-c]quinoline hydrochloride] the figure was 317 nM; with `Clc1cccc(Oc2ccc3c(c2)[C@H]2OCCC[C@H]2[C@@H](C2CCCCC2)N3)c1` (racemic) [Example 1, (4aSR*,5RS*,10bSR*)-9-(3-chlorophenoxy)-5-cyclohexyl-3,4,4a,5,6,10b-hexahydro-2H-pyrano[3,2-c]quinoline hydrochloride], 187 nM; with `NCCCOc1ccc2c(c1)[C@H]1OCCC[C@H]1[C@@H](C1CCCCC1)N2` (racemic) [Example 112, 3-((4aSR*,5RS*,10bSR*)-5-cyclohexyl-3,4,4a,5,6,10b-hexahydro-2H-pyrano[3,2-c]quinolin-9-yloxy)propan-1-amine hydrochloride], 134 nM.
The compound `Fc1ccc(COc2ccc3c(c2)[C@H]2OCC[C@H]2[C@@H](C2CCCCC2)N3)cc1` (racemic) [Example 91, (3aSR*,4RS*,9bSR*)-4-cyclohexyl-8-(4-fluorobenzyloxy)-2,3,3a,4,5,9b-hexahydrofuro[3,2-c]quinoline hydrochloride] returned a Ki of 267 nM.
In turn, `Clc1ccc(Oc2ccc3c(c2)[C@H]2OCCC[C@H]2[C@@H](C2CCCCC2)N3)cc1Cl` (racemic) [Example 93, (4aSR*,5RS*,10bSR*)-5-cyclohexyl-9-(3,4-dichlorophenoxy)-3,4,4a,5,6,10b-hexahydro-2H-pyrano[3,2-c]quinoline hydrochloride] registered a Ki of 79.3 nM.
Turning to `NCCCOc1ccc2c(c1)[C@H]1OCC[C@H]1[C@@H](C1CCCCC1)N2` (racemic) [Example 106, 3-((3aSR*,4RS*,9bSR*)-4-cyclohexyl-2,3,3a,4,5,9b-hexahydrofuro[3,2-c]quinolin-8-yloxy)propan-1-amine hydrochloride], the Ki stood at 25.3 nM.
Consider `CC(C)CCOc1ccc2c(c1)[C@H]1OCCC[C@H]1[C@@H](C1CCN(Cc3ccccc3)CC1)N2` (racemic) [Example 6, (4aSR*,5RS*,10bSR*)-5-(1-benzylpiperidin-4-yl)-9-(isopentyloxy)-3,4,4a,5,6,10b-hexahydro-2H-pyrano[3,2-c]quinoline hydrochloride], for which the Ki amounted to 15.1 nM.
The result for `CC(C)CCOc1ccc2c(c1)[C@H]1OCCC[C@H]1[C@@H](C1CCNCC1)N2` (racemic) [Example 100, (4aSR*,5RS*,10bSR*)-9-(isopentyloxy)-5-(piperidin-4-yl)-3,4,4a,5,6,10b-hexahydro-2H-pyrano[3,2-c]quinoline hydrochloride] reads 536 nM; that for `CC(C)CCOc1ccc2c(c1)[C@H]1OCCC[C@H]1[C@@H](C1CCOCC1)N2` (racemic) [Example 101, (4aSR*,5RS*,10bSR*)-9-(isopentyloxy)-5-(tetrahydro-2H-pyran-4-yl)-3,4,4a,5,6,10b-hexahydro-2H-pyrano[3,2-c]quinoline hydrochloride], 84 nM.
`CCCCOc1ccc2c(c1)[C@H]1OCCC[C@H]1[C@@H](C1CCCCC1)N2` (racemic) [Example 16, (4aSR*,5RS*,10bSR*)-9-butoxy-5-cyclohexyl-3,4,4a,5,6,10b-hexahydro-2H-pyrano[3,2-c]quinoline hydrochloride] displayed a Ki of 122 nM.
The compound `CCCCCc1ccc2c(c1)[C@H]1OCCC[C@H]1[C@@H](C1CCOCC1)N2` (racemic) [Example 63, (4aSR*,5RS*,10bSR*)-9-pentyl-5-(tetrahydro-2H-pyran-4-yl)-3,4,4a,5,6,10b-hexahydro-2H-pyrano[3,2-c]quinoline hydrochloride] yielded a Ki of 61.9 nM.
In the case of `Clc1ccc(Oc2ccc3c(c2)[C@H]2OCC[C@H]2[C@@H](C2CCCCC2)N3)cc1` (racemic) [Example 87, (3aSR*,4RS*,9bSR*)-8-(4-chlorophenoxy)-4-cyclohexyl-2,3,3a,4,5,9b-hexahydrofuro[3,2-c]quinoline hydrochloride], affinity was put at a Ki of 302 nM.
The result for `Clc1ccc(Oc2ccc3c(c2)[C@H]2OCCC[C@H]2[C@@H](C2CCCCC2)N3)cc1` (racemic) [Example 55, (4aSR*,5RS*,10bSR*)-9-(4-chlorophenoxy)-5-cyclohexyl-3,4,4a,5,6,10b-hexahydro-2H-pyrano[3,2-c]quinoline hydrochloride] reads 194 nM.
In turn, `c1cc2c(cc1OCCN1CCOCC1)[C@H]1OCC[C@H]1[C@@H](C1CCCCC1)N2` (racemic) [Example 41, (3aSR*,4RS*,9bSR*)-4-cyclohexyl-8-(2-morpholinoethoxy)-2,3,3a,4,5,9b-hexahydrofuro[3,2-c]quinoline hydrochloride] came in with a Ki of 131 nM.
For `NCCCCOc1ccc2c(c1)[C@H]1OCCC[C@H]1[C@@H](C1CCCCC1)N2` (racemic) [Example 111, 4-((4aSR*,5RS*,10bSR*)-5-cyclohexyl-3,4,4a,5,6,10b-hexahydro-2H-pyrano[3,2-c]quinolin-9-yloxy)butan-1-amine hydrochloride], the Ki was 242 nM.
With `CCCCCc1ccc2c(c1)[C@H]1OCCC[C@H]1[C@@H](C1CCCCC1)N2` (racemic) [Example 59, (4aSR*,5RS*,10bSR*)-5-cyclohexyl-9-pentyl-3,4,4a,5,6,10b-hexahydro-2H-pyrano[3,2-c]quinoline], the affinity, expressed as Ki, was 132 nM.
Compound `CC(C)CCOc1ccc2c(c1)[C@H]1OCC[C@H]1[C@@H](C1CCCCC1)N2` (racemic) [Example 32, (3aSR*,4RS*,9bSR*)-4-cyclohexyl-8-(isopentyloxy)-2,3,3a,4,5,9b-hexahydrofuro[3,2-c]quinoline hydrochloride] had a Ki of 108 nM.
Turning to `COc1ccc2c(c1)[C@H]1OCCC[C@H]1[C@@H](C1CCN(CCc3ccccc3)CC1)N2` (racemic) [Example 108, (4aSR*,5RS*,10bSR*)-9-methoxy-5-(1-phenethylpiperidin-4-yl)-3,4,4a,5,6,10b-hexahydro-2H-pyrano[3,2-c]quinoline hydrochloride], the affinity, expressed as Ki, was 279 nM.
`CCCCCc1ccc2c(c1)[C@H]1OCC[C@H]1[C@@H](C1CCSCC1)N2` (racemic) [Example 95, (3aSR*,4RS*,9bSR*)-8-pentyl-4-tetrahydro-2H-thiopyran-4-yl)-2,3,3a,4,5,9b-hexahydrofuro[3,2-c]quinoline hydrochloride] returned a Ki of 89.1 nM.
In the case of `Clc1ccc(Oc2ccc3c(c2)[C@H]2OCC[C@H]2[C@@H](C2CCCCC2)N3)cc1` (racemic) [Example 86, (3aSR*,4RS*,9bSR*)-8-(4-chlorophenoxy)-4-cyclohexyl-2,3,3a,4,5,9b-hexahydrofuro[3,2-c]quinoline], the Ki turned out to be 78.2 nM.
With `CCCCCc1ccc2c(c1)[C@H]1OCCC[C@H]1[C@@H](C1CCCCC1)N2` (racemic) [Example 60, (4aSR*,5RS*,10bSR*)-5-cyclohexyl-9-pentyl-3,4,4a,5,6,10b-hexhaydro-2H-pyrano[3,2-c]quinoline hydrochloride] the figure was 42.6 nM; with `c1cc2c(cc1OCCN1CCOCC1)[C@H]1OCCC[C@H]1[C@@H](C1CCCCC1)N2` (racemic) [Example 67, (4aSR*,5RS*,10bSR*)-5-cyclohexyl-9-(2-morpholinoethoxy)-3,4,4a,5,6,10b-hexahydro-2H-pyrano[3,2-c]quinoline], 311 nM; with `COc1ccc2c(c1)[C@H]1OCCC[C@H]1[C@@H](C1CCN(Cc3ccc(Cl)cc3)CC1)N2` (racemic) [Example 109, (4aSR*,5RS*,10bSR*)-5-(1-(4-chlorobenzyl)piperidin-4-yl)-9-methoxy-3,4,4a,5,6,10b-hexahydro-2H-pyrano[3,2-c]quinoline hydrochloride], 27.2 nM.
Regarding `c1ccc(Oc2ccc3c(c2)[C@H]2OCCC[C@H]2[C@@H](C2CCSCC2)N3)cc1` (racemic) [Example 71, (4aSR*,5RS*,10bSR*)-9-phenoxy-5-(tetrahydro-2H-thiopyran-4-yl)-3,4,4a,5,6,10b-hexahydro-2H-pyrano[3,2-c]quinoline hydrochloride], the affinity, expressed as Ki, was 349 nM.
In turn, `Clc1ccc(Oc2ccc3c(c2)[C@H]2OCC[C@H]2[C@@H](C2CCCCC2)N3)cc1Cl` (racemic) [Example 92, (3aSR*,4RS*,9bSR*)-4-cyclohexyl-8-(3,4-dichlorophenoxy)-2,3,3a,4,5,9b-hexahydrofuro[3,2-c]quinoline hydrochloride] displayed a Ki of 110 nM.
`CCCCCc1ccc2c(c1)[C@H]1OCC[C@H]1[C@@H](C1CCOCC1)N2` (racemic) [Example 85, (3aSR*,4RS*,9bSR*)-8-pentyl-4-(tetrahydro-2H-pyran-4-yl)-2,3,3a,4,5,9b-hexahydrofuro[3,2-c]quinoline hydrochloride] gave a Ki of 155 nM.
The compound `c1cc2c(cc1N1CCOCC1)[C@H]1OCC[C@H]1[C@@H](C1CCCCC1)N2` (racemic) [Example 103, (3aSR*,4RS*,9bSR*)-4-cyclohexyl-8-morpholino-2,3,3a,4,5,9b-hexahydrofuro[3,2-c]quinoline hydrochloride] showed a Ki of 337 nM.
